Measured values published in ChEMBL document CHEMBL1201862, “PubChem BioAssay data set” (2004).
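48-hour exposure; five concentrations; linearly interpolated endpoints. The concentration for 50% growth inhibition is given as GI50.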 Calls of active or inactive are those of the source. Cut-off read from the data, not from the text of the source: active = GI50 up to about 1.1 µM and inactive = higher.

What was measured:
Experiment in all cases: growth of human tumour cells (NCI), 48 h
[1] = test system: OVCAR-3
[2] = test system: HOP-92
[3] = test system: A498
[4] = test system: RXF 393
[5] = test system: SNB-75
[6] = test system: SNB-19
[7] = test system: HCT-15
[8] = test system: 786-0
[9] = test system: NCI-H23
[10] = test system: NCI-H226
[11] = test system: BT-549
[12] = test system: PC-3
[13] = test system: SW-620
[14] = test system: EKVX
[15] = test system: MDA-MB-435
[16] = test system: MCF7
[17] = test system: T47D
[18] = test system: NCI-H522
[19] = test system: DU-145

Compound | GI50 [1] | GI50 [2] | GI50 [3] | GI50 [4] | GI50 [5] | GI50 [6] | GI50 [7] [µM] | GI50 [8] | GI50 [9] | GI50 [10] | GI50 [11] | GI50 [12] | GI50 [13] | GI50 [14] | GI50 [15] | GI50 [16] | GI50 [17] | GI50 [18] | GI50 [19]
Cc1cc(NS(=O)(=O)c2ccc(Nc3c4ccccc4nc4c(C(=O)N5CCN(CCO)CC5)ccc(Cl)c34)cc2)no1 | > 100 µM (inactive) | > 100 µM (inactive) | > 100 µM (inactive) | > 100 µM (inactive) | 29.6 µM (inactive) | > 100 µM (inactive) | > 100 | > 100 µM (inactive) | > 100 µM (inactive) | > 100 µM (inactive) | – | – | – | – | – | – | – | – | –
CN(C)c1nncc2[nH]nnc12 | > 100 µM (inactive) | > 100 µM (inactive) | > 100 µM (inactive) | – | > 100 µM (inactive) | – | > 100 | > 100 µM (inactive) | > 100 µM (inactive) | > 100 µM (inactive) | > 100 µM (inactive) | > 100 µM (inactive) | > 100 µM (inactive) | > 100 µM (inactive) | > 100 µM (inactive) | > 100 µM (inactive) | > 100 µM (inactive) | > 100 µM (inactive) | –
COC(=O)c1c2c(cc3c1CC1(Cc4cc5c(cc4C1=O)CCC5)C3)CCC2 (configuration not stated) | 72.9 µM (inactive) | – | 34.4 µM (inactive) | – | 14.3 µM (inactive) | > 100 µM (inactive) | 42.7 | 35.4 µM (inactive) | 40.7 µM (inactive) | 60.3 µM (inactive) | 64.6 µM (inactive) | 6.68 µM (inactive) | 20.8 µM (inactive) | 56.1 µM (inactive) | 28.1 µM (inactive) | 24.7 µM (inactive) | 59 µM (inactive) | 19.9 µM (inactive) | > 100 µM (inactive)
Nn1c(Nc2ccc(S(N)(=O)=O)cc2)nnc(/C=C/c2c(O)ccc3ccccc23)c1=O | 13 µM (inactive) | – | 26.7 µM (inactive) | – | – | 32.5 µM (inactive) | 12.8 | 24.4 µM (inactive) | 4.07 µM (inactive) | – | 14.9 µM (inactive) | 47.2 µM (inactive) | 16.4 µM (inactive) | 13.3 µM (inactive) | 20.4 µM (inactive) | 17.5 µM (inactive) | 15 µM (inactive) | 13.5 µM (inactive) | 26.3 µM (inactive)
N=C(N)C1CN(CCCCCCCCCCN2CC(C(=N)N)C(O)=NC2=O)C(=O)N=C1O (configuration not stated) | > 10 µM (inactive) | > 10 µM (inactive) | > 10 µM (inactive) | > 10 µM (inactive) | > 10 µM (inactive) | > 10 µM (inactive) | > 10 | > 10 µM (inactive) | > 10 µM (inactive) | > 10 µM (inactive) | > 10 µM (inactive) | > 10 µM (inactive) | > 10 µM (inactive) | > 10 µM (inactive) | > 10 µM (inactive) | > 10 µM (inactive) | > 10 µM (inactive) | > 10 µM (inactive) | –
Oc1c(Cl)c(Cl)c(O)c(-c2cnc(-c3ncc(-c4c(O)c(Cl)c(Cl)c(O)c4Cl)s3)s2)c1Cl | 21.4 µM (inactive) | 25 µM (inactive) | – | 18.9 µM (inactive) | 28.1 µM (inactive) | 27.9 µM (inactive) | 13.6 | 25.1 µM (inactive) | 19.3 µM (inactive) | 3.96 µM (inactive) | – | 29.4 µM (inactive) | 21.4 µM (inactive) | 21.2 µM (inactive) | 21.9 µM (inactive) | 18.2 µM (inactive) | 29.9 µM (inactive) | 2.1 µM (inactive) | 49.8 µM (inactive)
COc1ccc(C2c3c[nH]nc3CC3CCCCC32)cc1 (configuration not stated) | 15.5 µM (inactive) | – | 11 µM (inactive) | – | 13.1 µM (inactive) | 18.2 µM (inactive) | 15.7 | 18.6 µM (inactive) | 17.4 µM (inactive) | 17.4 µM (inactive) | 16.6 µM (inactive) | 14.8 µM (inactive) | 18.3 µM (inactive) | – | 19.4 µM (inactive) | 15.2 µM (inactive) | 3.99 µM (inactive) | 19.8 µM (inactive) | 13.4 µM (inactive)
CC(C)(C)[Si](C)(C)OCC1OC(n2cnc3c(=O)[nH]cnc32)CC1O (configuration not stated) | > 100 µM (inactive) | > 100 µM (inactive) | > 100 µM (inactive) | > 100 µM (inactive) | 20.8 µM (inactive) | > 100 µM (inactive) | > 100 | > 100 µM (inactive) | > 100 µM (inactive) | > 100 µM (inactive) | – | > 100 µM (inactive) | > 100 µM (inactive) | > 100 µM (inactive) | > 100 µM (inactive) | > 100 µM (inactive) | > 100 µM (inactive) | > 100 µM (inactive) | > 100 µM (inactive)
